Measurements as given in US12060349B2, “Glucosylceramide synthase inhibitors” (Genzyme Corporation, priority 2012, dated 2024).
Read-outs that look alike come from different tables or passages of the source.

Assays:
C32 human melanoma cells = assay: cell viability in the C32 cell-based assay (Viability, C32 IC50); conditions: concentration causing 50% cell death, values greater than 10 represent a lack of cell death
Method in brief: (§1)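 Cell death was scored within the cell-based GM3 experiment for each line. The viability value is the concentration producing 50% death, and numbers exceeding 10 signify no cytotoxicity.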

[1] = target: T1, glucosylceramide synthase (Homo sapiens, UniProt Q16739); assay: microsomal assay measuring conversion of ceramide to glucosylceramide by HPLC (GCS IC50); type: biochemical; conditions: concentration causing 50% inhibition of glucosylceramide synthase activity
T1 construct: Microsomes were isolated from A375 human melanoma cells; endogenous in cells; host or cells: A375 human melanoma cells (microsomal fraction, 100,000 g pellet)
T1 sequence (Q16739 1-394): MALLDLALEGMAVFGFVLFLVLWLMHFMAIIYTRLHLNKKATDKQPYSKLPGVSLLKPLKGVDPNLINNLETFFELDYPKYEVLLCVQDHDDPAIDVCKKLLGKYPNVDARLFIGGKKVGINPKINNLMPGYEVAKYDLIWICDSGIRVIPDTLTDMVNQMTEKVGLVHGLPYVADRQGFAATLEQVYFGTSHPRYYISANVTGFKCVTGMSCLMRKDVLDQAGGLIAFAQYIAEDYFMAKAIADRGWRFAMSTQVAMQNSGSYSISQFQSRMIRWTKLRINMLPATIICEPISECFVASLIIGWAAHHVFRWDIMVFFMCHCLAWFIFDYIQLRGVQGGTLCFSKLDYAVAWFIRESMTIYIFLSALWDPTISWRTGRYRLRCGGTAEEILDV
Method in brief: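 IC50 is the compound concentration halving glucosylceramide synthase activity. Activity was measured in microsomes, with HPLC quantifying glucosylceramide formed from ceramide.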

[2] = test system: GM3 expression on the cell surface, B16 mouse melanoma cells; assay: cell based phenotypic assay, cell surface GM3 by antibody mediated immunofluorescence, B16 (GM3 B16 IC50); conditions: 50% inhibition of GM3 expression on the cell surface
Method in brief: (§2)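 Two melanoma lines, mouse B16 and human C32, were treated and surface GM3 quantified by antibody immunofluorescence for IC50. A parallel viability readout gives the concentration killing 50% of cells, with values over 10 indicating no cell death.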

B16 mouse melanoma cells = assay: cell viability in the B16 cell-based assay (Viability, B16 IC50)
Method in brief: as §1

[3] = test system: GM3 expression on the cell surface, C32 human melanoma cells; assay: cell based phenotypic assay, cell surface GM3 by antibody mediated immunofluorescence, C32 (GM3 C32 IC50); conditions: 50% inhibition of GM3 expression on the cell surface
Method in brief: as §2

[4] = Homo sapiens, C32, C32 cells, read-out: Viability, C32 IC50
[5] = Mus musculus, B16 mouse melanoma cells, read-out: GM3 B16 IC50
[6] = Mus musculus, B16, B16 cells, concentration causing 50% cell death, values greater than 10 represent a lack of cell death, read-out: Viability, B16 IC50
[7] = Homo sapiens, C32 human melanoma cells, read-out: GM3 C32 IC50
[8] = Homo sapiens, C32, read-out: Viability, C32 IC50, C32 cells
[9] = Mus musculus, read-out: GM3 B16 IC50, B16 mouse melanoma cells
[10] = Mus musculus, B16, read-out: Viability, B16 IC50
[11] = Homo sapiens, read-out: GM3 C32 IC50, C32 human melanoma cells

SMILES | IC50 [1] [nM] | IC50 (C32 human melanoma cells; [4]) [nM] | IC50 [2, 5] [nM] | IC50 (B16 mouse melanoma cells; [6]) [nM] | IC50 [3, 7] [nM] | other results
CN(C)C(=O)c1ccc(Oc2ccc(C(C)(C)NC(=O)OC3CN4CCC3CC4)cc2)cc1 (stereo not shown) [Example 287, Quinuclidin-3-yl 2-(4-(4-(dimethylcarbamoyl)phenoxy)phenyl)propan-2-ylcarbamate] | 1330 | – | – | – | – | IC50 (C32 human melanoma cells; read-out: Viability, C32 IC50, C32 cells): 3160 nM; IC50 ([2]; read-out: GM3 B16 IC50, B16 mouse melanoma cells): 2200 nM; IC50 (B16 mouse melanoma cells; read-out: Viability, B16 IC50, B16 cells, concentration causing 50% cell death, values greater than 10 represent a lack of cell death): ≥ 10000 nM; IC50 ([3]; read-out: GM3 C32 IC50, C32 human melanoma cells): 229 nM
CN(C)C(=O)c1cccc(Oc2cccc(C(C)(C)NC(=O)OC3CCN4CCC3CC4)c2)c1 (stereo not shown) [Example 288, 1-Aza-bicyclo[3.2.2]nonan-4-yl 2-(3-(3-(dimethylcarbamoyl)phenoxy)phenyl)propan-2-ylcarbamate] | 203 | ≥ 10000 | 1180 | ≥ 10000 | 50.2 | –
CN(C)C(=O)c1cccc(Oc2cccc(C(C)(C)NC(=O)NC3(C)CN4CCC3CC4)c2)c1 (stereo not shown) [Example 289, N,N-Dimethyl-3-(3-(2-(3-(3-methylquinuclidin-3-yl)ureido)propan-2-yl)phenoxy)benzamide] | 104 | ≥ 10000 | 1410 | 9260 | 91.7 | –
CN(C)C(=O)c1ccc(Oc2ccc(C(C)(C)NC(=O)NC3(C)CCN4CCC3CC4)cc2)cc1 (stereo not shown) [Example 290, N,N-Dimethyl-4-(4-(2-(3-(4-methyl-1-aza-bicyclo[3.2.2]nonan-4-yl)ureido)propan-2-yl)phenoxy)benzamide] | 19.1 | – | – | – | – | IC50 (C32 human melanoma cells; C32 cells, read-out: Viability, C32 IC50): 3160 nM; IC50 ([2]; B16 mouse melanoma cells, read-out: GM3 B16 IC50): 2580 nM; IC50 (B16 mouse melanoma cells; B16 cells, concentration causing 50% cell death, values greater than 10 represent a lack of cell death, read-out: Viability, B16 IC50): ≥ 10000 nM; IC50 ([3]; C32 human melanoma cells, read-out: GM3 C32 IC50): 26.8 nM
CNC(=O)c1ccc(Oc2ccc(C(C)(C)NC(=O)OC3CN4CCC3CC4)cc2)cc1 (stereo not shown) [Example 291, Quinuclidin-3-yl 2-(4-(4-(methylcarbamoyl)phenoxy)phenyl)propan-2-ylcarbamate] | 1910 | – | – | – | – | IC50 (C32 human melanoma cells; [8]): 3160 nM; IC50 [2, 9]: 2310 nM; IC50 (B16 mouse melanoma cells; [10]): ≥ 10000 nM; IC50 [3, 11]: 90.2 nM
CNC(=O)c1ccc(Oc2ccc(C(C)(C)NC(=O)OC3CCN4CCC3CC4)cc2)cc1 (stereo not shown) [Example 292, 1-Aza-bicyclo[3.2.2]nonan-4-yl 2-(4-(4-(methylcarbamoyl)phenoxy)phenyl)propan-2-ylcarbamate] | 207 | ≥ 10000 | 1220 | ≥ 10000 | 41.2 | –
CNC(=O)c1ccc(Oc2ccc(C(C)(C)NC(=O)NC3(C)CN4CCC3CC4)cc2)cc1 (stereo not shown) [Example 293, N-Methyl-4-(4-(2-(3-(3-methylquinuclidin-3-yl)ureido)propan-2-yl)phenoxy)benzamide] | 186 | 1000 | 5370 | ≥ 10000 | 46 | –
CNC(=O)c1ccc(Oc2ccc(C(C)(C)NC(=O)NC3(C)CCN4CCC3CC4)cc2)cc1 (stereo not shown) [Example 294, N-Methyl-4-(4-(2-(3-(4-methyl-1-aza-bicyclo[3.2.2]nonan-4-yl)ureido)propan-2-yl)phenoxy)benzamide] | 12.4 | 1000 | 843 | ≥ 10000 | 7.06 | –
CNC(=O)c1cccc(Oc2cccc(C(C)(C)NC(=O)NC3(C)CN4CCC3CC4)c2)c1 (stereo not shown) [Example 296, N-Methyl-3-(3-(2-(3-(3-methylquinuclidin-3-yl)ureido)propan-2-yl)phenoxy)benzamide] | 200 | ≥ 10000 | 5470 | ≥ 10000 | 155 | –
CNC(=O)c1cccc(Oc2cccc(C(C)(C)NC(=O)NC3(C)CCN4CCC3CC4)c2)c1 (stereo not shown) [Example 297, N-Methyl-3-(3-(2-(3-(4-methyl-1-aza-bicyclo[3.2.2]nonan-4-yl)ureido)propan-2-yl)phenoxy)benzamide] | 10.2 | 1000 | 1370 | ≥ 10000 | 13.2 | –
CNC(=O)c1cccc(Oc2cccc(C(C)(C)NC(=O)OC3CCN4CCC3CC4)c2)c1 (stereo not shown) [Example 298, 1-Aza-bicyclo[3.2.2]nonan-4-yl 2-(3-(3-(methylcarbamoyl)phenoxy)phenyl)propan-2-ylcarbamate] | 138 | 3160 | 1100 | ≥ 10000 | 30.8 | –
CC(C)(NC(=O)OC1CCN2CCC1CC2)c1ccc(Oc2ccc(C(=O)N3CCCCC3)cc2)cc1 (stereo not shown) [Example 299, 1-Aza-bicyclo[3.2.2]nonan-4-yl 2-(4-(4-(piperidine-1-carbonyl)phenoxy)phenyl) propan-2-ylcarbamate] | 15.4 | 1000 | 192 | ≥ 10000 | 3.67 | –
CC(C)(NC(=O)NC1(C)CCN2CCC1CC2)c1ccc(Oc2ccc(C(=O)N3CCCCC3)cc2)cc1 (stereo not shown) [Example 300, 1-(4-Methyl-1-aza-bicyclo[3.2.2]nonan-4-yl)-3-(2-(4-(4-(piperidine-1-carbonyl)phenoxy)phenyl)propan-2-yl)urea] | 6.85 | 316 | 87.6 | ≥ 10000 | 1.54 | –
CC(C)(NC(=O)OC1CCN2CCC1CC2)c1ccc(Oc2ccc(C(=O)N3CCC(F)(F)CC3)cc2)cc1 (stereo not shown) [Example 301, 1-Azabicyclo[3.2.2]nonan-4-yl 2-(4-(4-(4,4-difluoropiperidine-1-carbonyl)phenoxy)phenyl)propan-2-ylcarbamate] | 17.2 | 1000 | 49.4 | ≥ 10000 | 3.39 | –
CC(C)(NC(=O)NC1(C)CCN2CCC1CC2)c1ccc(Oc2ccc(C(=O)N3CCC(F)(F)CC3)cc2)cc1 (stereo not shown) [Example 302, 1-(2-(4-(4-(4,4-Difluoropiperidine-1-carbonyl)phenoxy)phenyl)propan-2-yl)-3-(4-methyl-1-azabicyclo[3.2.2]nonan-4-yl)urea] | 4.22 | 1000 | 31.7 | ≥ 10000 | 1.47 | –
CC(C)(NC(=O)NC1(C)CCN2CCC1CC2)c1ccc(Oc2ccc(C(=O)N3CC(F)(F)C3)cc2)cc1 (stereo not shown) [Example 303, 1-(2-(4-(4-(3,3-Difluoroazetidine-1-carbonyl)phenoxy)phenyl)propan-2-yl)-3-(4-methyl-1-aza-bicyclo[3.2.2]nonan-4-yl)urea] | 7.63 | 316 | 38.9 | ≥ 10000 | 1.24 | –
CC(C)(NC(=O)OC1CN2CCC1CC2)c1ccc(C(=O)N2CCN(c3ccccc3)CC2)cc1 (stereo not shown) [Example 304, Quinuclidin-3-yl 2-(4-(4-phenylpiperazine-1-carbonyl)phenyl)propan-2-ylcarbamate] | 1730 | – | – | – | – | IC50 (C32 human melanoma cells; [8]): ≥ 10000 nM; IC50 [2, 9]: 355 nM; IC50 (B16 mouse melanoma cells; [10]): ≥ 10000 nM; IC50 [3, 11]: 95.9 nM
CCC1(NC(=O)NC(C)(C)c2ccc(C(=O)N3CCN(c4ccccc4)CC3)cc2)CN2CCC1CC2 (stereo not shown) [Example 306, 1-(3-Ethylquinuclidin-3-yl)-3-(2-(4-(4-phenylpiperazine-1-carbonyl)phenyl)propan-2-yl)urea] | 95.1 | 3160 | 257 | ≥ 10000 | 32 | –
COCCOc1ccc(-c2ccc(C(C)(C)NC(=O)OC3CN4CCC3CC4)cc2)cn1 (stereo not shown) [Example 307, Quinuclidin-3-yl 2-(4-(6-(2-methoxyethoxy)pyridin-3-yl)phenyl)propan-2-ylcarbamate] | 735 | – | – | – | – | IC50 (C32 human melanoma cells; [8]): ≥ 10000 nM; IC50 [2, 9]: 4340 nM; IC50 (B16 mouse melanoma cells; [10]): ≥ 10000 nM; IC50 [3, 11]: 97.2 nM
COCCOc1ccc(-c2ccc(C(C)(C)NC(=O)OC3CN4CCC3CC4)cc2)nc1 (stereo not shown) [Example 308, Quinuclidin-3-yl 2-(4-(5-(2-methoxyethoxy)pyridin-2-yl)phenyl)propan-2-ylcarbamate] | 254 | – | – | – | – | IC50 (C32 human melanoma cells; [8]): 1000 nM; IC50 [2, 9]: 314 nM; IC50 (B16 mouse melanoma cells; [10]): 7770 nM; IC50 [3, 11]: 35.8 nM
